These results are taken from patent publication US5272175A, “Substituted tyrosyl diamide compounds” (priority 1992, dated 1993).

Assay [1] deals with mice. Briefly: Writhing Assay (phenylbenzoquinone (PBQ)-induced writhing), analgesic activity. The assay is classed as in vivo, CD Charles River mice. The following applies: for ED50: Mus musculus, 50% of mice with writhes <= half control median. The text has this: The "Writhing Assay" is one of the most widely-used experimental procedures for measuring the analgesic activity of different narcotic and nonnarcotic analgesic agents, and involves the continuous, chemically-induced pain of visceral origin to an animal, such as a mouse or rat. [Gyires et al., Arch. int. Pharmacodyn, 267, 131-140 (1984); C. Vander Wende et al., Fed. Proc., 15, 494 (1956); Koster et al., Fed. Proc., 18, 412 (1959); and Witken et al., J. Pharmacol. Exp. Ther., 133, 400-408 (1961).] Chemicals which may be used to induce this pain include phenylbenzoquinone (PBQ) and acetic acid. As a result of the chemical irritation to the animal, a characteristic stretching and writhing of the animal (dorsiflexion of the animal's back, extension of its hindlimbs and the strong contraction of its abdominal musculature) will generally occur. […] Drugs which reduce the number of writhes of the animal appear to restore the normal nociceptive threshold of the animal.
This assay was conducted generally in the manner described by R. I. Taber, "Predictive Value of Analgesic Assays in Mice and Rats," Advances in Biochemical Phychopharmacology, 8, 191 (1974).
Two hundred CD Charles River mice, weighing 20 to 30 grams, were used in this assay.
Twenty-five minutes after subcutaneous administration, and fifteen minutes after oral administration, to the mice of 10 mg per kilogram (mpk) of body weight of either a tyrosyl diamide compound of the invention (hereinafter "test compound"), or of the Jacobson Compound, 0.1 mL per 10 g of body weight of a 0.025% w/v solution of phenylbenzoquinone (PBQ) was injected intraperitoneally into each mouse. Some mice were given saline in place of a test compound, or of the Jacobson Compound, and were used as a control group.
Five minutes later, each mouse was individually placed into a glass beaker for observation, and the number of writhes occurring during the following ten-minute period was counted.
A compound was considered to be "active" (to have produced analgesia in a mouse) if, after the administration of 10 mg per kilogram (mpk) of body weight of the compound to the mouse, the number of writhes elicited by a mouse injected with PBQ was equal to, or less than, one-half the median number of writhes recorded for the saline-treated control group of mice that day, as described by R. I. Taber, supra.
The standard initial screening dose of a test compound employed in this assay was 10 mpk […] for both routes of administration. If this initial screening dose of the compound produced analgesia in seven of ten mice, then the effect of additional doses of the compound on the writhing response was evaluated, and then the ED50 value (that dose of a compound which produced analgesia in 50% of the mice to which the compound was administered) was calculated. A maximum likelihood function was used to determine the ED50 value. (The slopes of the dose-response curves for the compounds analyzed were compared as described by Tallarida and Murray, Manual of Pharmacologic Calculations, Page 1 (Springer Verlag, N.Y., 1981)).

Assay [2] deals with mice. Briefly: Tail Flick Assay. The assay is classed as in vivo, Male Charles River albino mice. To be noted: Mus musculus, sc, subcutaneous, dose producing half maximum possible increase in latency (to 7.5 seconds). The text has this: (§1) The "Tail Flick Assay" and the "Hot Plate Assay" (also known as the "Hind Paw Lick Assay") use thermal pain of transient duration, and are tests in which the pain threshold of the mice or rats being analyzed has not been altered. They are useful for evaluating the ability of a compound or drug to increase the animal's pain threshold (i.e. prolong response latencies), rather than to restore normal thresholds.
(§2) The heat-induced response to the Tail Flick Assay is a reflex reaction mediated at the level of the spinal cord. The heat-induced response to the Hot Plate Assay, however, is a more complex behavior requiring integration at higher centers in the brain. […]
(§3) Tail flick response latencies (defined as the time that elapsed between the onset of a high intensity beam of light and the reflex removal of the mouse's tail) and hot plate response latencies (defined as the time that elapsed between the placement of a mouse on a 55 degrees Celsius surface and a lick of the hind paw) were separately, but consecutively, measured before (baseline) and again at fixed intervals after subcutaneous administration of the Test Tyrosyl Diamide Compound, or after the administration of saline (controls). […] The significance of any increase in tail flick response latency or hot plate response latency is determined using analyses of variance. […]

Assay [3] concerns mice. Briefly: Hot Plate Assay (Hind Paw Lick Assay). The assay is classed as in vivo, Male Charles River albino mice. The following applies: Mus musculus, sc, subcutaneous, 55 degrees Celsius, dose producing half maximum possible increase in latency (to 25 seconds).
Source text: as §1, §2, §3
A general note: Hot-plate and tail-flick tests time the reaction to a heat stimulus.

Another assay deals with μ opioid receptors (Rattus norvegicus, UniProt P33535). The assay can be described thus: Opiate Binding Assay, displacement of 3[H]-DAMPGO from μ receptors.
The next assay addresses δ opioid receptors (Rattus norvegicus, UniProt P33533). Briefly: Opiate Binding Assay, displacement of 3[H]-DSLET from δ receptors.
Assay [4] concerns mice. To be noted: general statement on both tests; cited from earlier work.
Assay [5] concerns mice. To be noted: general statement on both tests; cited from earlier work. The source holds these as a separate data set.
Another assay relates to opioid activity. To be noted: cited from earlier work.
Assay [6] relates to brain opioid receptor sites. To be noted: cited from earlier work.

pIC50: −log10 of the molar value. Counter-ions that a name gives are not always drawn.

Sequence of δ opioid receptors (P33533 whole entry): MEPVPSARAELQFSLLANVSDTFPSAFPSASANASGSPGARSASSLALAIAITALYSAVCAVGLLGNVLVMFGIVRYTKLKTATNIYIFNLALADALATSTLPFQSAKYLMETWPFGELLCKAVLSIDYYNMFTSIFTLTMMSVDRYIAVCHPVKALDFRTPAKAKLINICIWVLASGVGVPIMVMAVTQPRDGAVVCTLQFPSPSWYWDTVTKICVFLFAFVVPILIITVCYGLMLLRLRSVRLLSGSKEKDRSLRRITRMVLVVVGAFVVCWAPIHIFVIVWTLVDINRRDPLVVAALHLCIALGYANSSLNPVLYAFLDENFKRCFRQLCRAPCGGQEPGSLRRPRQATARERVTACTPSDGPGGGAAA
Sequence of μ opioid receptors (P33535 whole entry): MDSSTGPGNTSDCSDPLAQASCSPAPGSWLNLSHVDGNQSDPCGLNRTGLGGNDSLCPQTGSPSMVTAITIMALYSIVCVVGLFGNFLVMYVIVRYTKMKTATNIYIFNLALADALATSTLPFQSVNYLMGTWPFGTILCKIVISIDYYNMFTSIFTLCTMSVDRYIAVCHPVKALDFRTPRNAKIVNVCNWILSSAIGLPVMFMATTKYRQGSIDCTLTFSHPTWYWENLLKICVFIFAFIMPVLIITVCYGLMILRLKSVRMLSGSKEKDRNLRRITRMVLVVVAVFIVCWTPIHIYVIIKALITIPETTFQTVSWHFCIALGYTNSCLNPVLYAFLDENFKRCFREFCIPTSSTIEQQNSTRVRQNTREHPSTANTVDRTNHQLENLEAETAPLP

Turning to `CC(=O)N[C@@H](Cc1ccccc1)C(=O)NCC(C)(C)NC(=O)[C@@H](N)Cc1c(C)cc(O)cc1C` [Example 47, αS-(Acetylamino)-N-[2-[[[2S-amino-3-(4-hydroxy-2,6-dimethylphenyl) -1-oxopropyl]amino]-2-methylpropyl]-benzenepropanamide, monohydrochloride], the “potency rank in the Writhing Assay” value in the assay with mice [1] was “most potent compound of the invention tested”. The ED50 (commonly the midpoint of the dose-response relation) in the assay with mice [1] (0.25 h, oral, PBQ i.p. 15 min after compound, read-out: ED50, Writhing Assay, Oral (p.o.)) is 0.6 mg/kg; in the assay with mice [1] (sc, 25 min, subcutaneous, PBQ i.p. 25 min after compound, read-out: ED50, Writhing Assay, Subcutaneous (S.C.)), 0.2 mg/kg; in the assay on mice [2], 1.9 mg/kg; with mice [3], 2.4 mg/kg. Also, the “potency relative to the Jacobson Compound, Writhing Assay, oral” value in the assay with mice [1] (oral) was “seven times more potent”. Also, the “potency relative to the Jacobson Compound, Writhing Assay, subcutaneous” value in the assay on mice [1] (subcutaneous) is recorded as “eight times more potent”. Further, the pIC50 (as a rule, the IC50 on a negative log10 scale, so that one unit is a factor of ten) was 9.40 at μ opioid receptors and 9.52 at δ opioid receptors. In addition, on δ opioid receptors (ratio of mean IC50 values for μ and δ, above 1.0 = more δ specific), the “Mean IC50 μ/δ Ratio” value turned out to be 1.3.
Regarding `COc1ccc2c3c1O[C@H]1[C@@H](O)C=C[C@H]4[C@@H](C2)N(C)CC[C@@]341` [codeine], in the assay on mice [4], the “activity in Tail Flick Assay” value is reported as “active in both of these tests”. Besides, in the assay on mice [5], the “activity in Hot Plate Assay” value was “active in both of these tests”.
With `CC(C)C[C@H](NC(=O)[C@H](Cc1ccccc1)NC(=O)CNC(=O)CNC(=O)[C@@H](N)Cc1ccc(O)cc1)C(=O)O` [leucine enkephalin, H2 N-Tyr-Gly-Gly-Phe-Leu-OH], the “opioid / morphine-like activity” value in the assay with opioid activity was “some weak morphine-like actions”. Also, the “binding to opiate / brain opioid receptor sites” value in [6] is “bind to the same receptor sites as do the opiates”.
Regarding `CSCC[C@H](NC(=O)[C@H](Cc1ccccc1)NC(=O)CNC(=O)CNC(=O)[C@@H](N)Cc1ccc(O)cc1)C(=O)O` [methionine enkephalin, H2 N-Tyr-Gly-Gly-Phe-Met-OH], the “opioid / morphine-like activity” value with opioid activity is “some weak morphine-like actions”. The “binding to opiate / brain opioid receptor sites” value in [6] is given as “bind to the same receptor sites as do the opiates”.
In the case of `CN1CC[C@]23c4c5ccc(O)c4O[C@H]2[C@@H](O)C=C[C@H]3[C@H]1C5` [morphine], the “activity in Tail Flick Assay” value in the assay on mice [4] was “active in both of these tests”. The “activity in Hot Plate Assay” value with mice [5] is “active in both of these tests”.
